PubChem BioAssay AID1918953 (Molecular Pharmacology Branch, DTP, NCI, 2023)

Test system: MDA-MB-231 complex spheroid viability
Test: Anticancer human tumor MDA-MB-231/ATCC cell line growth inhibition;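 note: drug exposure lasted 7 days starting on day 3 of spheroid growth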
Settings: for IC50: curve of first compound; for viability, T/C: stronger effect = lower value
How it was run: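 Complex spheroids of tumor cells with HUVEC and human MSCs, exposed to iadademstat combined with other agents. Each agent tested in half-log steps from near clinical Cmax (else 10 microM top), DMSO ≤0.25%.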

[1] = second compound 0.1 µM, first compound 0.00949 µM
[2] = second compound 0.1 µM, first compound 0.03 µM
[3] = second compound 0.1 µM, first compound 0.0949 µM
[4] = second compound 0.1 µM, first compound 0.3 µM
[5] = second compound 0.316 µM, first compound 0.00949 µM
[6] = second compound 0.316 µM, first compound 0.03 µM
[7] = second compound 0.316 µM, first compound 0.0949 µM
[8] = second compound 0.316 µM, first compound 0.3 µM
[9] = second compound 1 µM, first compound 0.00949 µM
[10] = second compound 1 µM, first compound 0.03 µM
[11] = second compound 1 µM, first compound 0.0949 µM
[12] = second compound 1 µM, first compound 0.3 µM
[13] = second compound 3.16 µM, first compound 0.00949 µM
[14] = second compound 3.16 µM, first compound 0.03 µM
[15] = second compound 3.16 µM, first compound 0.0949 µM
[16] = second compound 3.16 µM, first compound 0.3 µM
[17] = second compound 10 µM, first compound 0.00949 µM
[18] = second compound 10 µM, first compound 0.03 µM
[19] = second compound 10 µM, first compound 0.0949 µM
[20] = second compound 10 µM, first compound 0.3 µM

Structure (SMILES) | IC50 (second compound 0.1 µM) | IC50 (second compound 0.316 µM) | IC50 (second compound 1 µM) | IC50 (second compound 3.16 µM) | IC50 (second compound 10 µM) | viability, T/C [1] | viability, T/C [2] | viability, T/C [3] | viability, T/C [4] | viability, T/C [5] | viability, T/C [6] | viability, T/C [7] | viability, T/C [8] | viability, T/C [9] | viability, T/C [10] | viability, T/C [11] | viability, T/C [12] | viability, T/C [13] | viability, T/C [14] | viability, T/C [15] | further results
CCN(c1cc(-c2ccc(CN3CCOCC3)cc2)cc(C(=O)NCc2c(C)cc(C)[nH]c2=O)c1C)C1CCOCC1 + NC1CC1c1ccc(-c2cccc(O)c2)cc1 | 143 nM | 99.7 nM | 99.7 nM | 92 nM | 13.1 nM | 89.6% | 82% | 51.3% | 40% | 73.1% | 70.2% | 46.2% | 36.4% | 68.2% | 69.7% | 46.7% | 35.1% | 72.5% | 71.6% | 44.7% | viability, T/C (second compound 0.1 µM, first compound 0.949 µM): 27.8%; viability, T/C (second compound 0.1 µM, first compound 3 µM): 17.8%; viability, T/C (second compound 0.316 µM, first compound 0.949 µM): 25.2%; viability, T/C (second compound 0.316 µM, first compound 3 µM): 16.6%; viability, T/C (second compound 1 µM, first compound 0.949 µM): 23.9%; viability, T/C (second compound 1 µM, first compound 3 µM): 17.1%; viability, T/C [16]: 34.3%; viability, T/C (second compound 3.16 µM, first compound 0.949 µM): 21.8%; viability, T/C (second compound 3.16 µM, first compound 3 µM): 16.6%; viability, T/C [17]: 52.6%; viability, T/C [18]: 43.1%; viability, T/C [19]: 34.3%; viability, T/C [20]: 24.6%; viability, T/C (second compound 10 µM, first compound 0.949 µM): 16.8%; viability, T/C (second compound 10 µM, first compound 3 µM): 12.2%
Nc1ncn(C2CC(O)C(CO)S2)c(=O)n1 (stereo not given) + NC1CC1c1ccc(-c2cccc(O)c2)cc1 | 7.45 nM | 5.79 nM | 3.18 nM | 4.17 nM | 1.08 nM | 45.6% | 32.4% | 17% | 11.3% | 43.5% | 27.6% | 17.8% | 9.51% | 39.1% | 28.5% | 18.3% | 10.4% | 41.1% | 31% | 16.1% | viability, T/C (second compound 0.1 µM, first compound 0.000949 µM): 68.5%; viability, T/C (second compound 0.1 µM, first compound 0.003 µM): 61.9%; viability, T/C (second compound 0.316 µM, first compound 0.000949 µM): 60.4%; viability, T/C (second compound 0.316 µM, first compound 0.003 µM): 59.5%; viability, T/C (second compound 1 µM, first compound 0.000949 µM): 54%; viability, T/C (second compound 1 µM, first compound 0.003 µM): 53.4%; viability, T/C (second compound 3.16 µM, first compound 0.000949 µM): 59.4%; viability, T/C (second compound 3.16 µM, first compound 0.003 µM): 53.7%; viability, T/C [16]: 9.57%; viability, T/C (second compound 10 µM, first compound 0.000949 µM): 51.1%; viability, T/C (second compound 10 µM, first compound 0.003 µM): 41.2%; viability, T/C [17]: 28.2%; viability, T/C [18]: 19.5%; viability, T/C [19]: 12.1%; viability, T/C [20]: 9.21%
